{"source": "paper PMC12196347", "about": "“Evaluating Triazole-Substituted Pyrrolopyrimidines as CSF1R Inhibitors” (Molecules, 2025)", "key": {"CSF1R": {"molecular_target": "T1, CSF1R (Homo sapiens, UniProt P07333)", "T1 sequence (P07333 539-972 limits assumed)": "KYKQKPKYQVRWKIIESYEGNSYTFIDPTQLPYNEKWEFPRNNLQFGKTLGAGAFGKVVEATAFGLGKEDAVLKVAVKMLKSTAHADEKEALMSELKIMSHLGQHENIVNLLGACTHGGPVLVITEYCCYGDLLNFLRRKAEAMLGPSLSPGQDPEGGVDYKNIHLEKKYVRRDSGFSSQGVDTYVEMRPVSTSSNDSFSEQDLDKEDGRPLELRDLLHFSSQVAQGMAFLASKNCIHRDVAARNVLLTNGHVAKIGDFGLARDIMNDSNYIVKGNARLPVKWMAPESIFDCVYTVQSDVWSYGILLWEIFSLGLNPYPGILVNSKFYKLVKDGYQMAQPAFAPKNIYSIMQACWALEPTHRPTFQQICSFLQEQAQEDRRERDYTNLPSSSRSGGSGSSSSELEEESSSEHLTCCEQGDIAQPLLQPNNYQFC", "test": "CSF1R enzymatic inhibition, TR-FRET-based LANCE Ultra assay", "format": "biochemical", "details": "single 8-point titrations, ATP concentration 25 µM, read-out: Enz. IC50"}, "[1]": {"test": "Kinetic solubility, spectrophotometric", "format": "physicochemical", "details": "aqueous buffer, kinetic from dmso stock, spectrophotometrically at pH 7.4 in HEPES buffer"}, "[2]": {"test": "Mouse plasma protein binding", "format": "in vitro ADME", "details": "fraction bound, read-out: PPB (converted)"}, "ABL1": {"molecular_target": "T2, ABL1 (Homo sapiens, UniProt P00519)", "T2 construct": "purchased Thermo Fisher Scientific (Invitrogen) SelectScreen (Z'-LYTE)", "test": "Kinase panel profiling: ABL1", "format": "biochemical", "details": "ATP equal to KM"}, "ABL2 (Arg)": {"molecular_target": "T3, ABL2 (Arg) (Homo sapiens, UniProt P42684)", "T3 construct": "purchased Thermo Fisher Scientific (Invitrogen) SelectScreen (Z'-LYTE)", "test": "Kinase panel profiling: ABL2", "format": "biochemical", "details": "ATP equal to KM"}, "AKT1 (PKB alpha)": {"molecular_target": "T4, AKT1 (PKB alpha) (Homo sapiens, UniProt P31749)", "T4 construct": "purchased Thermo Fisher Scientific (Invitrogen) SelectScreen (Z'-LYTE)", "T4 sequence (P31749 whole entry)": "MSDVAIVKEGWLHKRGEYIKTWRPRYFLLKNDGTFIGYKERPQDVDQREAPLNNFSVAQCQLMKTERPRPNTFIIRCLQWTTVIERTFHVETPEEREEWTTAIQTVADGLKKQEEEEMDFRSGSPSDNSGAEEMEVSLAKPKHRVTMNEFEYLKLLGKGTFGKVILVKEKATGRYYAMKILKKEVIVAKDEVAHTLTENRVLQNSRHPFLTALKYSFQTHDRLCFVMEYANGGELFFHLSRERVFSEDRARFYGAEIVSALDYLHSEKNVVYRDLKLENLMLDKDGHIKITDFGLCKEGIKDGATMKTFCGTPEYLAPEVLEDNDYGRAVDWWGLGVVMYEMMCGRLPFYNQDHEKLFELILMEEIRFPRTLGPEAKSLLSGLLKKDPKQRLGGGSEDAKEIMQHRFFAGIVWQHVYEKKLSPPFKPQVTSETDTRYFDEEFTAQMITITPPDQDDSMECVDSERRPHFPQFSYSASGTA", "test": "Kinase panel profiling: AKT1", "format": "biochemical", "details": "ATP equal to KM"}, "AXL": {"molecular_target": "T5, AXL (Homo sapiens, UniProt P30530)", "T5 construct": "purchased Thermo Fisher Scientific (Invitrogen) SelectScreen (Z'-LYTE)", "test": "Kinase panel profiling: AXL", "format": "biochemical", "details": "ATP equal to KM"}, "CAMK1D (CaMKI delta)": {"molecular_target": "T6, CAMK1D (CaMKI delta) (Homo sapiens, UniProt Q8IU85)", "T6 construct": "purchased Thermo Fisher Scientific (Invitrogen) SelectScreen (Z'-LYTE)", "T6 sequence (Q8IU85 whole entry)": "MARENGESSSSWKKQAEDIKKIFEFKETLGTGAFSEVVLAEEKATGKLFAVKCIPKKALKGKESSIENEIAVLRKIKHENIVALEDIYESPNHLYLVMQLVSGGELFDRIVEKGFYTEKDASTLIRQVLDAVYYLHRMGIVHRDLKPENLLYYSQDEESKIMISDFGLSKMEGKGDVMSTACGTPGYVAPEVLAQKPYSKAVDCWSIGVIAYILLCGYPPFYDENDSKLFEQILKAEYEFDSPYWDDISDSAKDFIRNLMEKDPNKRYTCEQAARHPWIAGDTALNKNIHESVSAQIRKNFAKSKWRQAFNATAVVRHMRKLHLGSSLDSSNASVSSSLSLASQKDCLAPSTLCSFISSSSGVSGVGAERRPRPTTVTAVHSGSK", "test": "Kinase panel profiling: CAMK1D", "format": "biochemical", "details": "ATP equal to KM"}, "CLK1": {"molecular_target": "T7, CLK1 (Homo sapiens, UniProt P49759)", "T7 construct": "purchased Thermo Fisher Scientific (Invitrogen) SelectScreen (Z'-LYTE)", "test": "Kinase panel profiling: CLK1", "format": "biochemical", "details": "ATP equal to KM"}, "DAPK1": {"molecular_target": "T8, DAPK1 (Homo sapiens, UniProt P53355)", "T8 construct": "purchased Thermo Fisher Scientific (Invitrogen) SelectScreen (Z'-LYTE)", "test": "Kinase panel profiling: DAPK1", "format": "biochemical", "details": "ATP equal to KM"}, "FLT4 (VEGFR3)": {"molecular_target": "T9, FLT4 (VEGFR3) (Homo sapiens, UniProt P35916)", "T9 construct": "purchased Thermo Fisher Scientific (Invitrogen) SelectScreen (Z'-LYTE)", "T9 sequence (P35916 25-1363)": "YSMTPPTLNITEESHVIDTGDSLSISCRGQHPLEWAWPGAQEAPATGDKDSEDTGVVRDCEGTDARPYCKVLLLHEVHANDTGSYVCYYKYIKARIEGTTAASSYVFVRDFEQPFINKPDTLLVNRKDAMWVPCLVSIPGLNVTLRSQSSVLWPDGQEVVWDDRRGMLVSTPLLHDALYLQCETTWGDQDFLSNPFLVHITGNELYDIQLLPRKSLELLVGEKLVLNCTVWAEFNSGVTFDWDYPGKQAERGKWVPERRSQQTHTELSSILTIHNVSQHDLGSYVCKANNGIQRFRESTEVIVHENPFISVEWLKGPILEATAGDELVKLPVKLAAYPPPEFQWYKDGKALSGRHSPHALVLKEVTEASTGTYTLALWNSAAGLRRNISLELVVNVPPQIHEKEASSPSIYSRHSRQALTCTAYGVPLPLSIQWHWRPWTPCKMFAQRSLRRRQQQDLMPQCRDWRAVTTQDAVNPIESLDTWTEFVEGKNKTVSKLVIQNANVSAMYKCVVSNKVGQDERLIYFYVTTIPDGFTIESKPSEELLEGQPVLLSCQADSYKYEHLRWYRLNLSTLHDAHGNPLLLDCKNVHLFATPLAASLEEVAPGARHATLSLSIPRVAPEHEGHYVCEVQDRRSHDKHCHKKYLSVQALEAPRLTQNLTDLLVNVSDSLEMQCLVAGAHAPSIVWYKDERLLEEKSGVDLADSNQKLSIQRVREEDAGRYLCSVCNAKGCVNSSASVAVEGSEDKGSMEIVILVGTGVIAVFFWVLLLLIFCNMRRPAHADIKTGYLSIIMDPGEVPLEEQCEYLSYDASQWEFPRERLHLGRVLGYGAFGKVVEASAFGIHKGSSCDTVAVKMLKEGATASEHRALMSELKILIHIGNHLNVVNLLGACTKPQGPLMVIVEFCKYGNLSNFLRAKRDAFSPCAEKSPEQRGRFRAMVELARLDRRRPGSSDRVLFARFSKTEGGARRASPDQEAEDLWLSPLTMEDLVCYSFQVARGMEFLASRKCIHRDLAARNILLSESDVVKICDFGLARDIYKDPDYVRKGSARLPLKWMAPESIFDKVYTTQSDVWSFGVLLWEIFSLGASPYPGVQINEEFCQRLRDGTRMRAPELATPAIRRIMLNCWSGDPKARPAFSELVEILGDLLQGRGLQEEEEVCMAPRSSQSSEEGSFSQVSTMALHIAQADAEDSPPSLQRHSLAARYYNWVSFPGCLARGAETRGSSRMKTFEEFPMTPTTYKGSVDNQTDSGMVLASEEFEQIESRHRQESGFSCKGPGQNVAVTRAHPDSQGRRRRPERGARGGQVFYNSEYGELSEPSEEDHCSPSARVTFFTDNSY", "test": "Kinase panel profiling: FLT4", "format": "biochemical", "details": "ATP equal to KM"}, "FYN": {"molecular_target": "T10, FYN (Homo sapiens, UniProt P06241)", "T10 construct": "purchased Thermo Fisher Scientific (Invitrogen) SelectScreen (Z'-LYTE)", "T10 sequence (P06241 whole entry)": "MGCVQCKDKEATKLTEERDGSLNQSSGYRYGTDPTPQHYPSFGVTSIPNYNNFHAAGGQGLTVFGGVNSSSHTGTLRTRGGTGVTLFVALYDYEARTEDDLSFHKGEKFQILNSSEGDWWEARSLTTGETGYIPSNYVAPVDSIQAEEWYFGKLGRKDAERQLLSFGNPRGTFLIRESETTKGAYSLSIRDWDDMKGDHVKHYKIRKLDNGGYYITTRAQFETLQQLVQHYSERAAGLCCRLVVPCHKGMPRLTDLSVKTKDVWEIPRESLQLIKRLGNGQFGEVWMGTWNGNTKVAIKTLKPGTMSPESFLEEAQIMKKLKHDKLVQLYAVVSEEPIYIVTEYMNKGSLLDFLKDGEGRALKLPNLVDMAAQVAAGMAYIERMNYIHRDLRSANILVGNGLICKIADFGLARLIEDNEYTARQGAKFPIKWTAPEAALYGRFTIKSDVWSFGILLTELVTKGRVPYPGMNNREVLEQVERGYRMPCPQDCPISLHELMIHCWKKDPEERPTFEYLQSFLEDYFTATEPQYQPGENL", "test": "Kinase panel profiling: FYN", "format": "biochemical", "details": "ATP equal to KM"}, "HCK": {"molecular_target": "T11, HCK (Homo sapiens, UniProt P08631)", "T11 construct": "purchased Thermo Fisher Scientific (Invitrogen) SelectScreen (Z'-LYTE)", "T11 sequence (P08631 whole entry)": "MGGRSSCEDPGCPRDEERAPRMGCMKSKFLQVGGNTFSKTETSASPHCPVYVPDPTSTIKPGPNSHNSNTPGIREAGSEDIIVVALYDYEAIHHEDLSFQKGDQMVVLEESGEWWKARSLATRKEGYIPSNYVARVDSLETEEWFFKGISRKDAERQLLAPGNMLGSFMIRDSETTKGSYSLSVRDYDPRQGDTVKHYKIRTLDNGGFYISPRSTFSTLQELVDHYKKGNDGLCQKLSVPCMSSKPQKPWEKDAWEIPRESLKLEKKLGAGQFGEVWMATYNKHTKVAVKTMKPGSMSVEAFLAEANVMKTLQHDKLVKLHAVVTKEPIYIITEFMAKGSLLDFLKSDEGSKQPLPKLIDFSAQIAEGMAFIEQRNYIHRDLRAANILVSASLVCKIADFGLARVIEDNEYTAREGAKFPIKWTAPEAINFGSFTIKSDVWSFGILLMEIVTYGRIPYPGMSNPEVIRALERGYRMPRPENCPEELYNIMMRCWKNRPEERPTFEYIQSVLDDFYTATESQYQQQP", "test": "Kinase panel profiling: HCK", "format": "biochemical", "details": "ATP equal to KM"}, "JAK2": {"molecular_target": "T12, JAK2 (Homo sapiens, UniProt O60674)", "T12 construct": "purchased Thermo Fisher Scientific (Invitrogen) SelectScreen (Z'-LYTE)", "T12 sequence (O60674 whole entry)": "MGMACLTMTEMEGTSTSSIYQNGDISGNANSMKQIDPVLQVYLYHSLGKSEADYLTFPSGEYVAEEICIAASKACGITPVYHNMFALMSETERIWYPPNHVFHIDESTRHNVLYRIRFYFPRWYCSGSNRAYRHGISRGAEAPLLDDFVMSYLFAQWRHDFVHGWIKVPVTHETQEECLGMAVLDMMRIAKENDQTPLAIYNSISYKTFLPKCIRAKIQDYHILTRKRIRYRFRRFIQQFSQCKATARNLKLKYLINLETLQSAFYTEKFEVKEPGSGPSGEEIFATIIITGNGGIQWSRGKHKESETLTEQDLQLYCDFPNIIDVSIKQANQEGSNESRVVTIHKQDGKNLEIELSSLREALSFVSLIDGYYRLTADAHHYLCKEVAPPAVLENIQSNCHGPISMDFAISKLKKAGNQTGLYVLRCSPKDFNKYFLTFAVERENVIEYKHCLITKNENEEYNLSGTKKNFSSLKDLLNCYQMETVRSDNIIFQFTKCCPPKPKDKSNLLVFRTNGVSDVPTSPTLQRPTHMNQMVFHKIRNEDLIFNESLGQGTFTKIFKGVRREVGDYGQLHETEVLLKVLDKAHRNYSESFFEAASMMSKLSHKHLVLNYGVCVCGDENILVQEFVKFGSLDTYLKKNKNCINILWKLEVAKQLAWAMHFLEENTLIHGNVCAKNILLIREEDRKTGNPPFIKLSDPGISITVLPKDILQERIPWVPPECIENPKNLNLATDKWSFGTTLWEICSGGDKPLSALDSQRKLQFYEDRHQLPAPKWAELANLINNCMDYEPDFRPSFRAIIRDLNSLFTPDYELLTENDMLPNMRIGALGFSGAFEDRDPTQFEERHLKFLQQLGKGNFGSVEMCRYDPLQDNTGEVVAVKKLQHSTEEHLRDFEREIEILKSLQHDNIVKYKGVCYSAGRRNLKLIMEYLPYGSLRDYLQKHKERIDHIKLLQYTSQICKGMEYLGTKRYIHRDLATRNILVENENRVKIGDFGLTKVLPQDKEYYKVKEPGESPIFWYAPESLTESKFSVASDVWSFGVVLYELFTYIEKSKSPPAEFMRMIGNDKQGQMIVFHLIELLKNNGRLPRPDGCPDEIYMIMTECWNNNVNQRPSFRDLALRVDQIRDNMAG", "test": "Kinase panel profiling: JAK2", "format": "biochemical", "details": "ATP equal to KM"}, "LYN A": {"molecular_target": "T13, LYN A (Homo sapiens, UniProt P07948)", "T13 construct": "purchased Thermo Fisher Scientific (Invitrogen) SelectScreen (Z'-LYTE)", "test": "Kinase panel profiling: LYN A", "format": "biochemical", "details": "ATP equal to KM"}, "MET (cMet)": {"molecular_target": "T14, MET (cMet) (Homo sapiens, UniProt P08581)", "T14 construct": "purchased Thermo Fisher Scientific (Invitrogen) SelectScreen (Z'-LYTE)", "test": "Kinase panel profiling: MET", "format": "biochemical", "details": "ATP equal to KM"}, "MUSK": {"molecular_target": "T15, MUSK (Homo sapiens, UniProt O15146)", "T15 construct": "purchased Thermo Fisher Scientific (Invitrogen) SelectScreen (Z'-LYTE)", "T15 sequence (O15146 24-869)": "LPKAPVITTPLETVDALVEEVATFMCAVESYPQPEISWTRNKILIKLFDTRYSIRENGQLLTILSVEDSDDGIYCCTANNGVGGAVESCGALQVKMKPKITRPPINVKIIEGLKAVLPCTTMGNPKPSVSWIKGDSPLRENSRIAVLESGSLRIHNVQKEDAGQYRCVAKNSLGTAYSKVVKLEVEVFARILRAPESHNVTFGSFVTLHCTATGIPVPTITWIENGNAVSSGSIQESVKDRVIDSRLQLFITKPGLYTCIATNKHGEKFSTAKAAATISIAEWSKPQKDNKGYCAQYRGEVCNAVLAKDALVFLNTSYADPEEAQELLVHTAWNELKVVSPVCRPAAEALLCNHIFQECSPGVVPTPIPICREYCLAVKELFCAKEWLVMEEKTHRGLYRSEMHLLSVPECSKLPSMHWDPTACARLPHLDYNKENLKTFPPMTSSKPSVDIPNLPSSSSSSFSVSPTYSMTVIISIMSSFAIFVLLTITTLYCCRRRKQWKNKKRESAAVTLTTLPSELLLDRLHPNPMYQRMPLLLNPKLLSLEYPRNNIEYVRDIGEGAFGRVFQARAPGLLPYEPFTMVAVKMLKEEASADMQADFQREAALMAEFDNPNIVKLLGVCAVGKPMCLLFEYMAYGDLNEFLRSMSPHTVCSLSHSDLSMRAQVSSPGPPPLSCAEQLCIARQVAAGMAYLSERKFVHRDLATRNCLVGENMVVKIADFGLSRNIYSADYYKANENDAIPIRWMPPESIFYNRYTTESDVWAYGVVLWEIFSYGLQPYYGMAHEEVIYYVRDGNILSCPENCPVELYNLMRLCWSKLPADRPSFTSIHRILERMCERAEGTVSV", "test": "Kinase panel profiling: MUSK", "format": "biochemical", "details": "ATP equal to KM"}, "PLK1": {"molecular_target": "PLK1 (Homo sapiens, UniProt P53350)", "sequence (P53350 whole entry)": "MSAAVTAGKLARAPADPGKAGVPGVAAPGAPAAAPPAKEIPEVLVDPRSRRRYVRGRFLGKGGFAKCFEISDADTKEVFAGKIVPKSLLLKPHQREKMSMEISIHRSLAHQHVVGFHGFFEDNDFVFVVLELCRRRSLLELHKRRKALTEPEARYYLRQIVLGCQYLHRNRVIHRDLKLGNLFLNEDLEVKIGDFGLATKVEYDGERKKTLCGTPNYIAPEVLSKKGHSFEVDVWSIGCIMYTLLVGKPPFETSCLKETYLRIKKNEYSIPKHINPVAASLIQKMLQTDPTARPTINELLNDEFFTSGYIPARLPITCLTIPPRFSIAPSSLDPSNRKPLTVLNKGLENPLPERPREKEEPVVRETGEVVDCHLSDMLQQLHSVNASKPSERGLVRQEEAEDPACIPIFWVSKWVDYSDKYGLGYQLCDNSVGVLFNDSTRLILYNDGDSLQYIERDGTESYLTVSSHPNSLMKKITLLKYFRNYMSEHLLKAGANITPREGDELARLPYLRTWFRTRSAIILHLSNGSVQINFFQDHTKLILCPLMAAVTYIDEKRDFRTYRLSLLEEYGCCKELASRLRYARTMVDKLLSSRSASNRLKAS", "test": "Kinase panel profiling: PLK1", "format": "biochemical", "details": "ATP equal to KM"}, "ROCK1": {"molecular_target": "ROCK1 (Homo sapiens, UniProt Q13464)", "test": "Kinase panel profiling: ROCK1", "format": "biochemical", "details": "ATP equal to KM"}, "[3]": {"details": "1000 nM test concentration, read-out: Average inhibition (%)"}, "[4]": {"details": "1000 nM, first data point, read-out: Inhibition (%)"}, "[5]": {"details": "1000 nM, second data point, read-out: Inhibition (%)"}}, "note": "pIC50: −log10 of the molar value. Like-named read-outs stand apart in the source and are kept apart here.", "data": [{"smiles": "Cc1cccc(CN(C)c2ncnc3[nH]c(-c4cn(Cc5cccnc5)nn4)cc23)c1", "note": "[Compound 27a, N-Methyl-N-(3-methylbenzyl)-6-(1-(pyridin-3-ylmethyl)-1H-1,2,3-triazol-4-yl)-7H-pyrrolo[2,3-d]pyrimidin-4-amine]", "values": [{"measurement": "pIC50", "setting": "CSF1R", "result": "> 9.00"}, {"measurement": "solubility kinetic", "setting": "[1]", "result": 3.1, "unit": "µM"}, {"measurement": "fraction unbound", "setting": "[2]", "result": "< 0.01"}, {"measurement": "inhibition at 1 µM", "setting": "ABL1; [3]", "result": 99, "unit": "%"}, {"measurement": "inhibition at 1 µM", "setting": "ABL1; [4]", "result": 99, "unit": "%"}, {"measurement": "inhibition at 1 µM", "setting": "ABL2 (Arg); [3]", "result": 100, "unit": "%"}, {"measurement": "inhibition at 1 µM", "setting": "ABL2 (Arg); [4]", "result": 100, "unit": "%"}, {"measurement": "inhibition at 1 µM", "setting": "AKT1 (PKB alpha); [3]", "result": 2, "unit": "%"}, {"measurement": "inhibition at 1 µM", "setting": "AKT1 (PKB alpha); [4]", "result": 3, "unit": "%"}, {"measurement": "inhibition at 1 µM", "setting": "AKT1 (PKB alpha); [5]", "result": 1, "unit": "%"}, {"measurement": "inhibition at 1 µM", "setting": "AXL; [3]", "result": 16, "unit": "%"}, {"measurement": "inhibition at 1 µM", "setting": "AXL; [4]", "result": 16, "unit": "%"}, {"measurement": "inhibition at 1 µM", "setting": "CAMK1D (CaMKI delta); [3]", "result": 5, "unit": "%"}, {"measurement": "inhibition at 1 µM", "setting": "CAMK1D (CaMKI delta); [4]", "result": 2, "unit": "%"}, {"measurement": "inhibition at 1 µM", "setting": "CAMK1D (CaMKI delta); [5]", "result": 9, "unit": "%"}, {"measurement": "inhibition at 1 µM", "setting": "CLK1; [3]", "result": 8, "unit": "%"}, {"measurement": "inhibition at 1 µM", "setting": "CLK1; [4]", "result": 8, "unit": "%"}, {"measurement": "inhibition at 1 µM", "setting": "DAPK1; [3]", "result": 4, "unit": "%"}, {"measurement": "inhibition at 1 µM", "setting": "DAPK1; [4]", "result": 13, "unit": "%"}, {"measurement": "inhibition at 1 µM", "setting": "DAPK1; [5]", "result": -5, "unit": "%"}, {"measurement": "inhibition at 1 µM", "setting": "FLT4 (VEGFR3); [3]", "result": 16, "unit": "%"}, {"measurement": "inhibition at 1 µM", "setting": "FLT4 (VEGFR3); [4]", "result": 15, "unit": "%"}, {"measurement": "inhibition at 1 µM", "setting": "FLT4 (VEGFR3); [5]", "result": 16, "unit": "%"}, {"measurement": "inhibition at 1 µM", "setting": "FYN; [3]", "result": 76, "unit": "%"}, {"measurement": "inhibition at 1 µM", "setting": "FYN; [4]", "result": 75, "unit": "%"}, {"measurement": "inhibition at 1 µM", "setting": "FYN; [5]", "result": 77, "unit": "%"}, {"measurement": "inhibition at 1 µM", "setting": "HCK; [3]", "result": 77, "unit": "%"}, {"measurement": "inhibition at 1 µM", "setting": "HCK; [4]", "result": 77, "unit": "%"}, {"measurement": "inhibition at 1 µM", "setting": "HCK; [5]", "result": 76, "unit": "%"}, {"measurement": "inhibition at 1 µM", "setting": "JAK2; [3]", "result": 26, "unit": "%"}, {"measurement": "inhibition at 1 µM", "setting": "JAK2; [4]", "result": 25, "unit": "%"}, {"measurement": "inhibition at 1 µM", "setting": "JAK2; [5]", "result": 26, "unit": "%"}, {"measurement": "inhibition at 1 µM", "setting": "LYN A; [3]", "result": 66, "unit": "%"}, {"measurement": "inhibition at 1 µM", "setting": "LYN A; [4]", "result": 66, "unit": "%"}, {"measurement": "inhibition at 1 µM", "setting": "MET (cMet); [3]", "result": 13, "unit": "%"}, {"measurement": "inhibition at 1 µM", "setting": "MET (cMet); [4]", "result": 10, "unit": "%"}, {"measurement": "inhibition at 1 µM", "setting": "MET (cMet); [5]", "result": 16, "unit": "%"}, {"measurement": "inhibition at 1 µM", "setting": "MUSK; [3]", "result": 72, "unit": "%"}, {"measurement": "inhibition at 1 µM", "setting": "MUSK; [4]", "result": 73, "unit": "%"}, {"measurement": "inhibition at 1 µM", "setting": "MUSK; [5]", "result": 72, "unit": "%"}, {"measurement": "inhibition at 1 µM", "setting": "PLK1; [3]", "result": 6, "unit": "%"}, {"measurement": "inhibition at 1 µM", "setting": "PLK1; [4]", "result": 5, "unit": "%"}, {"measurement": "inhibition at 1 µM", "setting": "PLK1; [5]", "result": 6, "unit": "%"}, {"measurement": "inhibition at 1 µM", "setting": "ROCK1; [3]", "result": 0, "unit": "%"}, {"measurement": "inhibition at 1 µM", "setting": "ROCK1; [4]", "result": 2, "unit": "%"}, {"measurement": "inhibition at 1 µM", "setting": "ROCK1; [5]", "result": -2, "unit": "%"}]}]}
